This note sets out measurements from BindingDB's records for patent US20250066350 (Innovstone Therapeutics, 2025).

In the experiment the target is Serine/threonine-protein kinase ATR (Homo sapiens, UniProt Q13535). The experiment is described as follows: ATR Enzyme Assay. An excerpt: I. Experimental Materials and Instruments1. ATR enzyme (Eurofins Pharma Discovery Services, 14-953M)2. GST-tagged P53 protein (Eurofins Pharma Discovery Services, 14-952M)3. 384-well plate (Geriner bio-one, 784075)4. U-bottom 96-well plate (Geriner bio-one, 651201)5. Anti-phospho-P53 protein antibody labeled with europium cryptate (cisbio, 61P08KAZ)6. Anti-GST antibody linked to d2 (cisbio, 61GSTDLB)7. ATP solution (Sigma, R0441)8. DTT (Sigma, D0632-259)9. HEPES (Sigma, 15630080)10. Microplate reader (Envision 2104 Multilabel Reader)II. Experimental Steps15 nM ATR enzyme, 80 nM P53 protein, 300 nM ATP (the final concentrations were 40 nM and 150 nM, respectively), and small molecule compounds of various concentrations (the final concentrations (nM) of the ten points were 2985.0, 895.5, 298.5, 110.56, 33.17, 11.06, 4.09, 1.23, 0.41 and 0.15, respectively, and the final dimethyl sulfoxide concentration was 0.498%) were mixed and incubated at room temperature for 90 minutes. 10 μL of 2× cocktail buffer was added to the mixture of ATR, compound and substrate in the assay plate (anti-phospho-p53-Eu and anti-GST-d2 were diluted in the assay buffer). The resulting mixture was centrifuged at 1000 rpm for 30 seconds, and incubated overnight at 4° C. in the dark (a total of 20 μl in each well). The FRET signal (endpoint) was measured in the Envision instrument (HTRF 665/612 ratio was calculated at 665 nm emission and 612 nm emission). Data were processed using GraphPad software.
Serine/threonine-protein kinase ATR, sequence (Q13535 whole entry): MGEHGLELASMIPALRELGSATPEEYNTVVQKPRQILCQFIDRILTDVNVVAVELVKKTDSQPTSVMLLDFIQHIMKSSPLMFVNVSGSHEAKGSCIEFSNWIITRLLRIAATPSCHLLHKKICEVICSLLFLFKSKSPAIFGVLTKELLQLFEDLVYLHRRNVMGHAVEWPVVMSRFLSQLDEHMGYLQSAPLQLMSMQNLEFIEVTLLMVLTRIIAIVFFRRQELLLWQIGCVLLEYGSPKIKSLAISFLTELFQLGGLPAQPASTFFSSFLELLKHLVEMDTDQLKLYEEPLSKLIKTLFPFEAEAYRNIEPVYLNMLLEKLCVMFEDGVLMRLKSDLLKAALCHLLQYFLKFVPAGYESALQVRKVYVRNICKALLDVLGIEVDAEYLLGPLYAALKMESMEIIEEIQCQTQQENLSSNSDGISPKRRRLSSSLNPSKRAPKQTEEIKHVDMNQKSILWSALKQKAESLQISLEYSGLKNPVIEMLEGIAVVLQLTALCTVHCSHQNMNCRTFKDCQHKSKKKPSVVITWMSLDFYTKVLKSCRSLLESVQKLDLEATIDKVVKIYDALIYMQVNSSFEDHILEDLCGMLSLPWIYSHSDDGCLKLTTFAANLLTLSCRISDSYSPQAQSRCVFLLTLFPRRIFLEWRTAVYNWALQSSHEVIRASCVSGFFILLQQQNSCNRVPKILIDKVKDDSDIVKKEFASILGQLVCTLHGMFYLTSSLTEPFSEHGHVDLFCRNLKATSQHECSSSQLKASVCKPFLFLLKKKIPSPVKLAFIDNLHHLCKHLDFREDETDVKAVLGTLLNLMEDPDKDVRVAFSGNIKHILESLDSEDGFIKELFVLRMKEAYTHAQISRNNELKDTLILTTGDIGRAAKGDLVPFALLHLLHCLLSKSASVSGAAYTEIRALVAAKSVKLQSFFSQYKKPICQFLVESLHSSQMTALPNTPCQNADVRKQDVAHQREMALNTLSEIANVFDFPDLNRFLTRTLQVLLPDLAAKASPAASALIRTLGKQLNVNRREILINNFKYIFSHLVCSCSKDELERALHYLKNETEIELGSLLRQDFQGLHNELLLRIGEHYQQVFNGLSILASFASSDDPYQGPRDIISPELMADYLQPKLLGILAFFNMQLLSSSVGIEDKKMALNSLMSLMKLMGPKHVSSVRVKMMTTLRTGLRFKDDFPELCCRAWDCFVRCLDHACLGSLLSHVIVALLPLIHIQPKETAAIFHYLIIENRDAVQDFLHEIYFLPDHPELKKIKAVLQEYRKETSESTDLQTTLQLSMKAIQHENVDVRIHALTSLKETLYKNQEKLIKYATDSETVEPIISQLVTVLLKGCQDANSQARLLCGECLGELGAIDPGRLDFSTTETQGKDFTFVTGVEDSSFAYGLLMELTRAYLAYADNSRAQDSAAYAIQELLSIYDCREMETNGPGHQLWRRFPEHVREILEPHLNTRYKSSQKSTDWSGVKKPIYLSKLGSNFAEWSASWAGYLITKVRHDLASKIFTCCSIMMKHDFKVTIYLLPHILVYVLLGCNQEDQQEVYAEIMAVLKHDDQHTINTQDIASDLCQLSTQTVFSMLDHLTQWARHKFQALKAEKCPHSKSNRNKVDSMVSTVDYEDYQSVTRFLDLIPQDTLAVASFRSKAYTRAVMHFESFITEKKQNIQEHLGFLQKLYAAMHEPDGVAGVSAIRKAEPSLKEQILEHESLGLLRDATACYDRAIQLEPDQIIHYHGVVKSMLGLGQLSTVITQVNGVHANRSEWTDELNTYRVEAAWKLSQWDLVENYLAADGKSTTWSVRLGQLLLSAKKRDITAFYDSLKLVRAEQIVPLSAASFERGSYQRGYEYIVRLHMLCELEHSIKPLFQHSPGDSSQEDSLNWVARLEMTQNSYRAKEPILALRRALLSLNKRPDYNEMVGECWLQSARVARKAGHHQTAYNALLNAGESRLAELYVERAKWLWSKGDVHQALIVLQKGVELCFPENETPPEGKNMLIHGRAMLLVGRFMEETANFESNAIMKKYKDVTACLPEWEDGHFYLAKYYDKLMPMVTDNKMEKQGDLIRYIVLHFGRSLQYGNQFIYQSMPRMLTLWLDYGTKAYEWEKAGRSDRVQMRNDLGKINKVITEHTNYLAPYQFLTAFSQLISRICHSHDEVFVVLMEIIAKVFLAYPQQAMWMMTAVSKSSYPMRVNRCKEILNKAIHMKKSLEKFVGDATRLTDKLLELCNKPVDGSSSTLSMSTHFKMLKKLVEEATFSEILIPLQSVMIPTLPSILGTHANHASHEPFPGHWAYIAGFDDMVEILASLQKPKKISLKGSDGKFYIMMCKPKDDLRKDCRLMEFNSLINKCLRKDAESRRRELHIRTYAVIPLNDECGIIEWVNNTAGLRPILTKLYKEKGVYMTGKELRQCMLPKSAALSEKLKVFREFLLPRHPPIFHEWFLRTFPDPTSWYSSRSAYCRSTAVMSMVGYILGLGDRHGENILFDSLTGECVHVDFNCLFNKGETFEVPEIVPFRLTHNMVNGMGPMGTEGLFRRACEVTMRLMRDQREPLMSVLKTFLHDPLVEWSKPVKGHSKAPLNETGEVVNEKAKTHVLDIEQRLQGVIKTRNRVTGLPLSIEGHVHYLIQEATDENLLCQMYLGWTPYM
For `Cc1c(-c2cc(N3CCOC[C@H]3C)nc3c2cnn3-c2cc[nH]n2)c(C(F)(F)F)nn1C1CCNCC1` [US20250066350, Example 4], the IC50 – broadly, the concentration needed to halve the response being measured – is less than 10 nM.
Consider `C[C@@H]1COCCN1c1cc(-c2ccc(N3CCCCCC3=O)cc2F)c2cnn(-c3cc[nH]n3)c2n1` [US20250066350, Example 197], for which the IC50 is less than 10 nM.
Then `C[C@@H]1COCCN1c1cc(-c2ccc(NC(=O)C3CCCNC3)cc2)c2cnn(-c3cc[nH]n3)c2n1` (stereo partly specified) [US20250066350, Example 159], with less than 10 nM.
Then `C[C@@H]1COCCN1c1cc(-c2ccc(NC(=O)C3CCNC3)cc2)c2cnn(-c3cc[nH]n3)c2n1` (stereo partly specified) [US20250066350, Example 157], with less than 10 nM.
Then `CC1CCCN1C(=O)Nc1ccc(-c2cc(N3CCOC[C@H]3C)nc3c2cnn3-c2cc[nH]n2)c(F)c1` (stereo partly specified) [US20250066350, Example 252], with less than 10 nM; and `C[C@@H]1COCCN1c1cc(C2CCCOC2)c2cnn(-c3cc[nH]n3)c2n1` (stereo partly specified) [US20250066350, Example 13], with less than 10 nM; and `COCC#Cc1cc(N2CCOC[C@H]2C)nc2c1cnn2-c1cc[nH]n1` [US20250066350, Example 5], with less than 10 nM.
In the case of `C[C@@H]1COCCN1c1cc(-c2ccc(N3CCCCC3=O)c(F)c2)c2cnn(-c3cc[nH]n3)c2n1` [US20250066350, Example 171], the concentration for half-maximal inhibition (IC50) is less than 10 nM.
Then `C[C@@H]1COCCN1c1cc(-c2ccc(NC(=O)c3cccnc3)cc2F)c2cnn(-c3cc[nH]n3)c2n1` [US20250066350, Example 195], with less than 10 nM; and `C[C@@H]1COCCN1c1cc(-c2ccc(NC(=O)C3CCN(C)C3)cc2)c2cnn(-c3cc[nH]n3)c2n1` (stereo partly specified) [US20250066350, Example 213], with less than 10 nM; and `CNC(=O)N(C)c1ccc(-c2cc(N3CCOC[C@H]3C)nc3c2cnn3-c2cc[nH]n2)cc1` [US20250066350, Example 215], with less than 10 nM.
Turning to `C[C@@H]1COCCN1c1cc(-c2ccc(NC(=O)C(F)F)cc2)c2cnn(-c3cc[nH]n3)c2n1` [US20250066350, Example 217], the IC50 was less than 10 nM.
`C[C@@H]1COCCN1c1cc(-c2ccc(NC(=O)N3CCCC3)cc2)c2cnn(-c3cc[nH]n3)c2n1` [US20250066350, Example 207] returned an IC50 of less than 10 nM.
The result for `Cc1[nH]nc(C(F)(F)F)c1-c1cc(N2CCOC[C@H]2C)nc2c1cnn2-c1cc[nH]n1` [US20250066350, Example 1] reads less than 10 nM.
`C[C@@H]1COCCN1c1cc(C#CC(C)(C)O)c2cnn(-c3cc[nH]n3)c2n1` [US20250066350, Example 16]: the half-maximal inhibitory concentration (IC50) is less than 10 nM.
Then `C[C@@H]1COCCN1c1cc(-c2ccc(N3CCCCC3=O)cc2)c2cnn(-c3cc[nH]n3)c2n1` [US20250066350, Example 7], with less than 10 nM; and `C[C@@H]1COCCN1c1cc(C2(O)CCC3(CC2)CO3)c2cnn(-c3cc[nH]n3)c2n1` (stereo partly specified) [US20250066350, Example 2], with less than 10 nM.
Turning to `C[C@@H]1COCCN1c1cc(C#CC2CCCNC2)c2cnn(-c3ccn[nH]3)c2n1` (stereo partly specified) [US20250066350, Example 209], the IC50 is less than 10 nM.
`C[C@@H]1COCCN1c1cc(-c2ccc(N3CCCCC3=O)cc2C(F)(F)F)c2cnn(-c3cc[nH]n3)c2n1` [US20250066350, Example 242] gave an IC50 of less than 10 nM.
In turn, `C[C@@H]1COCCN1c1cc(-c2ccc(NC(=O)NC34CC5CC(CC(C5)C3)C4)cc2)c2cnn(-c3cc[nH]n3)c2n1` [US20250066350, Example 187] yielded a 50% inhibitory concentration (IC50) of less than 10 nM.
The result for `C[C@@H]1COCCN1c1cc(-c2ccc(N3CC4CCC(O4)C3=O)cc2F)c2cnn(-c3cc[nH]n3)c2n1` (stereo partly specified) [US20250066350, Example 199] reads less than 10 nM; that for `CC(=O)N1CCC(C(=O)Nc2ccc(-c3cc(N4CCOC[C@H]4C)nc4c3cnn4-c3cc[nH]n3)cc2)C1` (stereo partly specified) [US20250066350, Example 161], less than 10 nM; that for `C[C@@H]1COCCN1c1cc(-c2ccc(NC(=O)C3CCOCC3)cc2)c2cnn(-c3cc[nH]n3)c2n1` [US20250066350, Example 155], less than 10 nM.
For the molecule `C[C@@H]1COCCN1c1cc(-c2ccc(-c3ccnn3C)cc2F)c2cnn(-c3cc[nH]n3)c2n1` [US20250066350, Example 258], the half-inhibitory concentration (IC50) was less than 10 nM.
The result for `C[C@@H]1COCCN1c1cc(-c2cc(C#N)c(N3CCCCC3=O)cc2F)c2cnn(-c3cc[nH]n3)c2n1` [US20250066350, Example 259] reads less than 10 nM; that for `C[C@@H]1COCCN1c1cc(-c2ccc(N3CC4(COC4)C3)cc2)c2cnn(-c3cc[nH]n3)c2n1` [US20250066350, Example 15], less than 10 nM.
Then `C[C@@H]1COCCN1c1cc(-c2ccc3c(c2)CCN3C(=O)c2ccncc2)c2cnn(-c3cc[nH]n3)c2n1` [US20250066350, Example 183], with less than 10 nM; and `C[C@@H]1COCCN1c1cc(-c2ccc(NC(=O)c3ccncn3)cc2)c2cnn(-c3cc[nH]n3)c2n1` [US20250066350, Example 165], with less than 10 nM.
The result for `C[C@@H]1COCCN1c1cc(-c2ccc(N3CCCCC3=O)c(C#N)c2)c2cnn(-c3cc[nH]n3)c2n1` [US20250066350, Example 169] reads less than 10 nM.
For `CCC(CC)C(=O)Nc1ccc(-c2cc(N3CCOC[C@H]3C)nc3c2cnn3-c2cc[nH]n2)cc1` [US20250066350, Example 151], the IC50 is less than 10 nM.
The result for `C[C@@H]1COCCN1c1cc(C#CC2(O)CCCCC2)c2cnn(-c3cc[nH]n3)c2n1` [US20250066350, Example 6] reads less than 10 nM; that for `C[C@@H]1COCCN1c1cc(C#CC2(O)CCC3(CC2)CC3)c2cnn(-c3ccn[nH]3)c2n1` [US20250066350, Example 10], less than 10 nM; that for `C[C@@H]1COCCN1c1cc(-c2ccc(NC(=O)c3cccc(S(C)(=O)=O)c3)cc2)c2cnn(-c3cc[nH]n3)c2n1` [US20250066350, Example 145], less than 10 nM.
Then `Cc1ccc(-c2cc(N3CCOC[C@H]3C)nc3c2cnn3-c2cc[nH]n2)cn1` [US20250066350, Example 9], with less than 10 nM; and `Cc1nn(C2CCNCC2)c(C(F)(F)F)c1-c1cc(N2CCOC[C@H]2C)nc2c1cnn2-c1cc[nH]n1` [US20250066350, Example 3], with less than 10 nM; and `C[C@@H]1COCCN1c1cc(C2=CCCOC2)c2cnn(-c3cc[nH]n3)c2n1` [US20250066350, Example 8], with less than 10 nM.
The result for `C[C@@H]1COCCN1c1cc(-c2ccc(N3CCCCCC3=O)cc2)c2cnn(-c3cc[nH]n3)c2n1` [US20250066350, Example 153] reads less than 10 nM; that for `C[C@@H]1COCCN1c1cc(-c2ccc(N3CC4CCC(O4)C3=O)cc2)c2cnn(-c3cc[nH]n3)c2n1` (stereo partly specified) [US20250066350, Example 65], less than 10 nM.
With `C[C@@H]1COCCN1c1cc(-c2ccc(N3CCCCC3=O)nc2)c2cnn(-c3cc[nH]n3)c2n1` [US20250066350, Example 167], the half-maximal inhibitory concentration (IC50) was less than 10 nM.
The result for `C[C@@H]1COCCN1c1cc(-c2ccnc3[nH]ccc23)c2cnn(-c3cc[nH]n3)c2n1` [US20250066350, Example 11] reads less than 10 nM.
As for `C[C@@H]1COCCN1c1cc(-c2ccc(NC(=O)c3ccccc3)cc2)c2cnn(-c3cc[nH]n3)c2n1` [US20250066350, Example 163], the IC50 is less than 10 nM.
